Results on 16 molecules are retold here after patent publication US20110230493A1, “1-OXA-8-Azaspiro [4,5] Decabe-8-Carboxamide Compounds as FAAH Inhibitors” (Pfizer Inc., priority 2008, published 2011).

Molecules are shown by their SMILES. Marks after values point to notes of the source that are not given here.

For test [1], the system named is Male Sprague-Dawley Rats. The test can be described thus: In vivo Complete Freund's Adjuvant (CFA) efficacy assay, inhibition of allodynia. More on the design: species or system rat; key: (+) indicates the test compound was determined to be efficacious at 3 mpk, oral dosing; (−) indicates the test compound was determined to not be efficacious at 3 mpk, oral dosing. The settings on record: p < 0.05 vs vehicle group. How it is done: For additional information on the CFA efficacy assay, see Jayamanne et al., Brit. J. Pharmacol. 2006, 147, 281-288. Experiments were performed on adult Male Sprague-Dawley Rats (200 g-250 g). Inflammation was induced in the left hindpaw of the rat by an intra-plantar injection of 150 uL Complete Freund's Adjuvant (CFA) (SIGMA F5881). The CFA injection immediately induces local inflammation, paw swelling, and pain that persists for at least two weeks post-injection. Baseline paw withdrawal threshold (PWT) was measured to determine the percent inhibition of allodynia using a set of Von Frey Hairs on day 4 post injection as illustrated by the Dixon Up and Down Method (W. J. Dixon, Ann. Rev. Pharmacol. Toxicol. 1980, 20:441-462). […] Following Dose administration PWT threshold was evaluated again at four hours postdose. The Sprague-Dawley rats used in this assay were purchased from Harlan, 8520 Allison Pointe Blvd., Indianapolis, Ind., 46250, U.S.A. Sprague-Dawley rats are an outbred breed of albino rats first produced by the Sprague Dawley farms in Madison, Wis., U.S.A.
Percent Inhibition of Allodynia was determined by the formula: […]
ΔPWT measurements were averaged for each treatment group and statistical comparisons between groups were made using ANOVA and Dunnett's two-tailed test. […]

The target of test [2] is T1, human FAAH (Homo sapiens, UniProt O00519).
T1 construct: made in house; host or cells: E. coli
T1 sequence (O00519 1-579): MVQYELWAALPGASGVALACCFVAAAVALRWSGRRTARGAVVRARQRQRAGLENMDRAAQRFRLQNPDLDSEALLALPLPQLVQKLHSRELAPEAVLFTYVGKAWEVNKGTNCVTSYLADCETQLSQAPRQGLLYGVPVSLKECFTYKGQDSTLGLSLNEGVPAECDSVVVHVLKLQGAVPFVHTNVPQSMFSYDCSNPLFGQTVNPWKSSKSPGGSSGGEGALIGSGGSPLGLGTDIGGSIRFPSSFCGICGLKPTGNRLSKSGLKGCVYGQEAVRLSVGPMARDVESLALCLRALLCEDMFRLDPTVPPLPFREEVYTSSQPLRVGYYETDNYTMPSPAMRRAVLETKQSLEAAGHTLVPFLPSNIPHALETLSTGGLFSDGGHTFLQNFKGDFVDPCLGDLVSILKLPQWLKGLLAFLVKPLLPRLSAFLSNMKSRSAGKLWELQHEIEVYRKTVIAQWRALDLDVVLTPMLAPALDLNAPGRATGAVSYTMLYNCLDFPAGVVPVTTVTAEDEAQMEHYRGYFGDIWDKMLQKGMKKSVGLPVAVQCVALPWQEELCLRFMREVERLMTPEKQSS
The test can be described thus: FAAH assay, human FAAH enzyme inactivation (kinact/Ki). The note with it: oleamide 50 μM, 30° C.; for hFAAH kinact/Ki: in vitro, pH 7.4; for kinact/KI: pH 7.4, in vitro, read-out: hFAAH kinact/Ki. It is filed as biochemical. An outline of the steps: (§1)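 Oleamide hydrolysis by 1-4 nM purified E. coli-expressed FAAH (substrate 50 μM = Km) coupled to GDH/NADH, pH 7.4 phosphate, 7.5% DMSO and EtOH, 30° C; A340 followed 90 min. kobs from mono-exponential fits; kinact/Ki from kobs-versus-concentration slope, multiplied by two.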

Test [3] has as its target T2, rat FAAH (Rattus norvegicus, UniProt P97612).
T2 construct: made in house; host or cells: E. coli
T2 sequence (P97612 1-579): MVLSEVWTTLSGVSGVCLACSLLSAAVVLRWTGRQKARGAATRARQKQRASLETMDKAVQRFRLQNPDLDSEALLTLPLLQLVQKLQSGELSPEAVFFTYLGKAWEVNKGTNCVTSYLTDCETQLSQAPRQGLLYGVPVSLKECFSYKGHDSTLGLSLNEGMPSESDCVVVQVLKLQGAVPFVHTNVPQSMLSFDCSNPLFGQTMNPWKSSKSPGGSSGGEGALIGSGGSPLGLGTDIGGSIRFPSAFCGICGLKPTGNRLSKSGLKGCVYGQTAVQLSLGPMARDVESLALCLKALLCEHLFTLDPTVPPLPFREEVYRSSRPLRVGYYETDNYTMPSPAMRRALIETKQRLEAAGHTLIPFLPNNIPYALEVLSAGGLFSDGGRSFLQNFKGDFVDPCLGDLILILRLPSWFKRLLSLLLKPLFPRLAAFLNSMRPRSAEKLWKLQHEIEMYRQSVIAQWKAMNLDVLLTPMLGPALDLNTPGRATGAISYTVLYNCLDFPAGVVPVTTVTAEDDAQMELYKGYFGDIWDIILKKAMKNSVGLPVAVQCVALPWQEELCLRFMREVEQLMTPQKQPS
As to the kind of experiment: FAAH assay, rat FAAH enzyme inactivation (kinact/Ki). It is filed as biochemical. The settings on record: oleamide 50 μM, 30° C.; for rFAAH kinact/Ki: in vitro, pH 7.4; for kinact/KI: pH 7.4, in vitro, read-out: rFAAH kinact/Ki. The method in brief:
as §1

The mark [4] stands for this setting: 3 mpk, oral dosing, PWT four hours postdose.

In the case of `Cn1nnnc1NC(=O)N1CCC2(CC1)CC(c1cccc(OC(F)(F)F)c1)CO2` (single isomer, unassigned) [Example 78, N-(1-methyl-1H-tetrazol-5-yl)-3-[3-(trifluoromethoxy)phenyl]-1-oxa-8-azaspiro[4.5]decane-8-carboxamide], the “CFA Efficacy” value in test [1] (setting [4]) is recorded as “(+)”. Also, the “hFAAH kinact/Ki” value in test [2] amounted to 7100 M⁻¹ s⁻¹. In addition, the “rFAAH kinact/Ki” value in test [3] turned out to be 3840 M⁻¹ s⁻¹.
`O=C(Nc1cccnn1)N1CCC2(CC1)C[C@@H](c1cccc(Oc3ccc(C(F)(F)F)cn3)c1)CO2` [Example 2, (3S)—N-pyridazin-3-yl-3-(3-{[5-(trifluoromethyl)pyridin-2-yl]oxy}phenyl)-1-oxa-8-azaspiro[4.5]decane-8-carboxamide]: the “CFA Efficacy” value in test [1] (10 mpk, intraperitoneal dosing) was “(−)^c”. Further, the kinact/KI was determined as 1340 M⁻¹ s⁻¹ in test [2] and 1130 M⁻¹ s⁻¹ in test [3].
As to `O=C(Nc1cccnn1)N1CCC2(CC1)C[C@@H](c1cccc(Oc3ccc(Cl)cn3)c1)CO2` [Example 12, (3S)-3-{3-[(5-chloropyridin-2-yl)oxy]phenyl}-N-pyridazin-3-yl-1-oxa-8-azaspiro[4.5]decane-8-carboxamide], the “CFA Efficacy” value in test [1] (setting [4]) is recorded as “(+)”. Also, the kinact/KI in test [2] stood at 2190 M⁻¹ s⁻¹; in test [3], 2270 M⁻¹ s⁻¹.
Take `O=C(Nc1cccnn1)N1CCC2(CC1)C[C@H](c1cccc(Oc3ccc(C(F)(F)F)cn3)c1)CO2` [Example 3, (3R)—N-pyridazin-3-yl-3-(3-{[5-(trifluoromethyl)pyridin-2-yl]oxy}phenyl)-1-oxa-8-azaspiro[4.5]decane-8-carboxamide]: the “CFA Efficacy” value in test [1] (10 mpk, intraperitoneal dosing) is listed as “(−)^c”. For the same molecule, the kinact/KI in test [2] amounted to 3040 M⁻¹ s⁻¹; in test [3], 2240 M⁻¹ s⁻¹.
For `Cn1nnnc1NC(=O)N1CCC2(CC1)CC(c1cccc(OC(F)(F)F)c1)CO2` (single isomer, unassigned) [Example 77, N-(1-methyl-1H-tetrazol-5-yl)-3-[3-(trifluoromethoxy)phenyl]-1-oxa-8-azaspiro[4.5]decane-8-carboxamide], the “CFA Efficacy” value in test [1] (setting [4]) is listed as “(+)”. Besides, the kinact/KI is 7110 M⁻¹ s⁻¹ in test [2] and 4560 M⁻¹ s⁻¹ in test [3].
In the case of `Cn1nnnc1NC(=O)N1CCC2(CC1)CC(c1cccc(C(F)(F)F)c1)CO2` (single isomer, unassigned) [Example 94, N-(1-methyl-1H-tetrazol-5-yl)-3-[3-(trifluoromethyl)phenyl]-1-oxa-8-azaspiro[4.5]decane-8-carboxamid], the “CFA Efficacy” value in test [1] (setting [4]) is on record as “(+)”. Besides, the “hFAAH kinact/Ki” value in test [2] came out at 3760 M⁻¹ s⁻¹. The “rFAAH kinact/Ki” value in test [3] was 2110 M⁻¹ s⁻¹.
As for `Cc1noc(NC(=O)N2CCC3(CC2)C[C@@H](c2cccc(-c4ccc(OC(F)(F)F)cc4)c2)CO3)c1C` [Example 63, (3S)—N-(3,4-dimethylisoxazol-5-yl)-3-[4′-(trifluoromethoxy)biphenyl-3-yl]-1-oxa-8-azaspiro[4.5]decane-8-carboxamide], the “CFA Efficacy” value in test [1] (setting [4]) is recorded as “(+)”. Moreover, the kinact/KI stood at 2350 M⁻¹ s⁻¹ in test [2] and 2160 M⁻¹ s⁻¹ in test [3].
With `Cc1noc(NC(=O)N2CCC3(CC2)CC(c2ccc(OCc4ccccc4Cl)c(Cl)c2)CO3)c1C` (single isomer, unassigned) [Example 44, 3-{3-chloro-4-[(2-chlorobenzyl)oxy]phenyl}-N-(3,4-dimethylisoxazol-5-yl)-1-oxa-8-azaspiro[4.5]decane-8-carboxamide], the “CFA Efficacy” value in test [1] (setting [4]) is listed as “(+)”. The “hFAAH kinact/Ki” value in test [2] turned out to be 1330 M⁻¹ s⁻¹. In addition, the “rFAAH kinact/Ki” value in test [3] is 1950 M⁻¹ s⁻¹.
`Cn1nnnc1NC(=O)N1CCC2(CC1)C[C@H](c1ccc(OCc3ccc(F)cc3)cc1)CO2` [Example 90, (3R)-3-{4-[(4-fluorobenzyl)oxy]phenyl}-N-(1-methyl-1H-tetrazol-5-yl)-1-oxa-8-azaspiro[4.5]decane-8-carboxamide]: the “CFA Efficacy” value in test [1] (setting [4]) is listed as “(+)”. Moreover, the kinact/KI in test [2] stood at 30800 M⁻¹ s⁻¹; in test [3] it was 22600 M⁻¹ s⁻¹.
Consider `Cn1nnnc1NC(=O)N1CCC2(CC1)C[C@H](c1ccc(OCc3ccc(F)c(F)c3)cc1)CO2` [Example 88, (3R)-3-{4-[(3,4-difluorobenzyl)oxy]phenyl}-N-(1-methyl-1H-tetrazol-5-yl)-1-oxa-8-azaspiro[4.5]decane-8-carboxamide], for which the “CFA Efficacy” value in test [1] (setting [4]) was “(+)”. The kinact/KI turned out to be 32600 M⁻¹ s⁻¹ in test [2] and 25000 M⁻¹ s⁻¹ in test [3].
Regarding `O=C(Nc1cccnn1)N1CCC2(CC1)C[C@H](c1cccc(Oc3ccc(Cl)cn3)c1)CO2` [Example 11, (3R)-3-{3-[(5-chloropyridin-2-yl)oxy]phenyl}-N-pyridazin-3-yl-1-oxa-8-azaspiro[4.5]decane-8-carboxamide], the “CFA Efficacy” value in test [1] (setting [4]) is listed as “(+)”. The kinact/KI amounted to 2420 M⁻¹ s⁻¹ in test [2] and 1020 M⁻¹ s⁻¹ in test [3].
Taken in the same sequence, the figures for `Cn1nnnc1NC(=O)N1CCC2(CC1)CC(c1cccc(C(F)(F)F)c1)CO2` (single isomer, unassigned) [Example 93, N-(1-methyl-1H-tetrazol-5-yl)-3-[3-(trifluoromethyl)phenyl]-1-oxa-8-azaspiro[4.5]decane-8-carboxamide] were “(+)”, 4600 M⁻¹ s⁻¹ and 2160 M⁻¹ s⁻¹.
`Cn1nnnc1NC(=O)N1CCC2(CC1)CC(c1noc(-c3ccc(C(F)(F)F)cc3)n1)CO2` (single isomer, unassigned) [Example 82, N-(1-methyl-1H-tetrazol-5-yl)-3-{5-[4-(trifluoromethyl)phenyl]-1,2,4-oxadiazol-3-yl}-1-oxa-8-azaspiro[4.5]decane-8-carboxamide]: the “CFA Efficacy” value in test [1] (setting [4]) is given as “(+)”. Moreover, the kinact/KI was determined as 5110 M⁻¹ s⁻¹ in test [2] and 1500 M⁻¹ s⁻¹ in test [3].
For `Cc1noc(NC(=O)N2CCC3(CC2)C[C@H](c2cccc(-c4ccc(Cl)cc4)c2)CO3)c1C` [Example 61, (3R)-3-(4′-chlorobiphenyl-3-yl)-N-(3,4-dimethylisoxazol-5-yl)-1-oxa-8-azaspiro[4.5]decane-8-carboxamide], in test [1] (setting [4]), the “CFA Efficacy” value is listed as “(+)”. The kinact/KI in test [2] came out at 1220 M⁻¹ s⁻¹; in test [3] it was 433 M⁻¹ s⁻¹.
With `Cc1noc(NC(=O)N2CCC3(CC2)C[C@H](c2ccc(OCc4ccc(Cl)cc4)cc2)CO3)c1C` [Example 49, (3R)-3-{4-[(4-chlorobenzyl)oxy]phenyl}-N-(3,4-dimethylisoxazol-5-yl)-1-oxa-8-azaspiro[4.5]decane-8-carboxamide], the “CFA Efficacy” value in test [1] (setting [4]) was “(−)”. The kinact/KI in test [2] turned out to be 16800 M⁻¹ s⁻¹; in test [3] it was 21900 M⁻¹ s⁻¹.
For `Cn1nnnc1NC(=O)N1CCC2(CC1)C[C@@H](c1ccc(OCc3ccc(F)cc3)cc1)CO2` [Example 91, (3S)-3-{4-[(4-fluorobenzyl)oxy]phenyl}-N-(1-methyl-1H-tetrazol-5-yl)-1-oxa-8-azaspiro[4.5]decane-8-carboxamide], the “CFA Efficacy” value in test [1] (setting [4]) is “(+)”. Besides, the kinact/KI in test [2] was 21200 M⁻¹ s⁻¹; in test [3], 7500 M⁻¹ s⁻¹.
